Assay [1] deals with carrageenan-induced thermal hyperalgesia. The assay is described as follows: Carrageenan-induced thermal hyperalgesia, paw withdrawal latency. Format: in vivo, rat. The source says: Male Holtzman Sprague-Dawley rats (300-350 g; Harlan Industries) were individually housed and maintained on a 12-hr light/dark cycle with free access to food and water. For spinal drug injections, lumbar catheters were implanted in rats under isoflurane anesthesia according to a modification of the procedure described by Yaksh (Yaksh and Rudy, supra, 1976). A polyethylene catheter (PE-5; Spectranetics, 0.014 in OD) was inserted into the intrathecal space and advanced to the rostral edge of the lumbar enlargement through an incision in the atlanto-occipital membrane. Five days after implantation rats were entered into the study. In separate experiments to assess spinal prostaglandins release, rats were prepared with lumbar loop dialysis catheters with three lumens, as previously described, see (Yaksh, et al., supra, 2001). Thermal hyperalgesia. Two approaches were employed to initiate a hyperalgesic state. An inflammation-evoked thermal hyperalgesia was induced by subcutaneous injection of 2 mg of carrageenan (Sigma, St. Louis, Mo., 100 μl of […] solution (w/v) in physiological saline) into the plantar surface of the left hind paw. To assess the thermally-evoked paw-withdrawal response, a commercially available device modeled after that described by Hargreaves and colleagues (Hargreaves, Pain, 32:77-88, 1988) was used (see, Dirig and Yaksh, Neurosci. Lett., 220:93-96, 1996; Dirig, et al., J. Neurosci. Methods, 76:183-191, 1997). In brief, the device consisted of a glass surface (maintained at 25° C.) on which the rats are placed individually in Plexiglas cubicles (9×22×25 cm). The thermal nociceptive stimulus originated from a focused projection bulb positioned below the glass surface. The stimulus was delivered separately to either hind paw of each test subject with the aid of an angled mirror mounted on the stimulus source. A timer was actuated with the light source, and latency was defined as the time required for the paw to show a brisk withdrawal as detected by photodiode motion sensors that stop the timer and terminate the stimulus. Paw withdrawal latencies (PWL) were assessed prior to any treatment (control) and at intervals after treatment. Left (injured) and right (uninjured) paw withdrawal latencies were assessed and plotted versus time. In addition, difference latency scores (uninjured-injured) were calculated and the average withdrawal latency over the post-injection observation intervals are calculated for comparison between treatment groups. Drugs were delivered systemically (IP) or spinally (IT). Intraperitoneal drugs were delivered uniformly in doses prepared in volumes of 0.5 ml/kg. Drugs injected IT were administered in a total volume of […] followed by a 10 μl flush using vehicle.

Assay [2] deals with intrathecal SP evoked thermal hyperalgesia. The assay is described as follows: Intrathecal substance P-induced thermal hyperalgesia. Format: in vivo, rat. The conditions noted are these: 3 mg/kg IP, 30 min before IT SP. The text has this:
Male Holtzman Sprague-Dawley rats (300-350 g; Harlan Industries) were individually housed and maintained on a 12-hr light/dark cycle with free access to food and water. For spinal drug injections, lumbar catheters were implanted in rats under isoflurane anesthesia according to a modification of the procedure described by Yaksh (Yaksh and Rudy, supra, 1976). A polyethylene catheter (PE-5; Spectranetics, 0.014 in OD) was inserted into the intrathecal space and advanced to the rostral edge of the lumbar enlargement through an incision in the atlanto-occipital membrane. Five days after implantation rats were entered into the study. […] A timer was actuated with the light source, and latency was defined as the time required for the paw to show a brisk withdrawal as detected by photodiode motion sensors that stop the timer and terminate the stimulus. Paw withdrawal latencies (PWL) were assessed prior to any treatment (control) and at intervals after treatment. Left (injured) and right (uninjured) paw withdrawal latencies were assessed and plotted versus time. In addition, difference latency scores (uninjured-injured) were calculated and the average withdrawal latency over the post-injection observation intervals are calculated for comparison between treatment groups. […] The mean PWL of the left and right paws was assessed at each time point. […]

In the next assay the target is T1, GV sPLA2 (Homo sapiens, UniProt P39877).
T1 sequence (P39877 21-138): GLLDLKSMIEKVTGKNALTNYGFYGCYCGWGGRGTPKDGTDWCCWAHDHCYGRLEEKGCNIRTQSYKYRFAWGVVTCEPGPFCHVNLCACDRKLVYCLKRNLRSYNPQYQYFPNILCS
The assay is described as follows: GV sPLA2 activity assay. The settings on record: at 0.091 mole fraction. The class given is biochemical.

The test system of assay [3] is murine RAW 264.7 macrophage-like cell line. The assay is described as follows: Long-term LPS stimulation, PGE2 release. Format: cell-based. How it is done: Several 2-oxoamides were tested in the long-term lipopolysaccharide (LPS) stimulation pathway in the murine RAW 264.7 macrophage-like cell line. (Raschke, et al., Cell, 1978, 15, 261-267). This pathway requires GIVA PLA2 activity and results in the extracellular release of many eicosanoid compounds including the prostaglandin PGE2. (Gijon, et al., leukoc. Biol., 1999, 65, 330-336). […] In the low μM range, AX041 and AX073 reduced PGE2 release by roughly 40% (FIG. 1(D)). At 1 μM and 5 μM concentrations, small activations were often seen. The in vitro and cellular results together are consistent with the known roles of GVIA PLA2 given that AX010, a selective GVIA inhibitor, had no cellular effect. […] Inhibitors selective for GIVA PLA2 or dual specificity inhibitors reduce PGE2 levels, also consistent with the known role of GIVA PLA2 in PGE2 production.

Experimental findings from patent US20080319065A1, “Systemic and Intrathecal Effects of a Novel Series of Phospholipase A2 Inhibitors on Hyperalgesia and Spinal Pge2 Release” (The Regents of the University of California, priority 2005, published 2008) are described below.

The structures appear in SMILES notation.

Consider `CCCCCCCCCCCCCCC(=O)C(=O)NCCCC(=O)OCC` [AX048, Ethyl 4-[(2-oxohexadecanoyl)amino]butanoate], for which the “antihyperalgesic effect by pretreatment interval” value in assay [1] (3 mg/kg IP, 15 min before carrageenan) is “minimal effects”; in assay [1] (3 mg/kg IP, 30 min before carrageenan) it was “peak effects”; in assay [1] (3 mg/kg IP, 180 min before carrageenan), “effects persisted”; in assay [1] (3 mg/kg IP, 360 min before carrageenan), “no different from the control”. Also, the “reduction of carrageenan thermal hyperalgesia” value in assay [1] (3 mg/kg IP, 30 min pretreatment) was “reduced the thermal hyperalgesia”. The “dose dependency of anti-hyperalgesic effect” value in assay [1] (IP, 0.2-3 mg/kg) is on record as “dose-dependent”. In assay [1] (Rattus norvegicus, IP, carrageenan thermal hyperalgesia, read-out: IP ED50, dose that reduced the hyperalgesia by 50%), the ED50 (usually the dose at which the effect has come halfway, by size or by number of responders) came out at 1.2 mg/kg. The “attenuation of carrageenan thermal hyperalgesia” value in assay [1] (intrathecal 30 μg/10 μL, 15 min pretreatment) is reported as “attenuated the thermal hyperalgesia”. Moreover, in assay [2], the “prevention of intrathecal SP-evoked thermal hyperalgesia” value is “completely prevented the spinally-evoked thermal hyperalgesia”. The “efficacy against sPLA2” value at GV sPLA2 is recorded as 61.5%.

With `CCC(=O)C(=O)NCCCC(=O)OC` [AX010], the “inhibition of PGE2 release, in words” value in assay [3] is recorded as “did not inhibit PGE2 release”.
